Calls of active or inactive are those of the source. No cut-off for these calls is given here.
Tests used:
[1] = target: T1, Tyrosine-protein phosphatase non-receptor type 1 (Homo sapiens) (UniProt P18031); test: Inhibition of PTP1B (unknown origin) at 24.2 uM
T1 sequence (whole entry): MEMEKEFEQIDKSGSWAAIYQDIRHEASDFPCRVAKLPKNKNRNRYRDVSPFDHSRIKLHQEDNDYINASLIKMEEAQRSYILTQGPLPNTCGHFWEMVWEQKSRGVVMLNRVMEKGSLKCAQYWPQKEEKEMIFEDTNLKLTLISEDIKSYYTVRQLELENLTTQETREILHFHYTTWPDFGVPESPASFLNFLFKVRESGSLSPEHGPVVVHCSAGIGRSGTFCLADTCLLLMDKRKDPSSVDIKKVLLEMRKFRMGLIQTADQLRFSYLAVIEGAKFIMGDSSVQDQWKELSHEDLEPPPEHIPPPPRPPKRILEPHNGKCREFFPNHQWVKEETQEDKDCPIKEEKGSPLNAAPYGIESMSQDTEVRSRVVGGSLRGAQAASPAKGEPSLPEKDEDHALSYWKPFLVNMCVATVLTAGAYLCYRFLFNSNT

Jurkat = test: Cytotoxicity against human Jurkat cells at 24.2 uM; format: functional, cell-based
[2] = target: T2, Tyrosine-protein phosphatase non-receptor type 1 (Homo sapiens, UniProt P18031); test: Inhibition of PTP1B (unknown origin)
T2 sequence (P18031 whole entry): T1 sequence (whole entry)

inhibition [1] | IC50 [2] [µM] | SMILES | inhibition (Jurkat)
42% | 7.45 | CC[C@]12CCCC(C)(C)[C@@H]1CC[C@]1(C)[C@@H]2C[C@@H](O)[C@]2(C)C3=C(CC[C@@H]12)[C@@H](C)OC3=O | inactive
42% |  | CC[C@]12CCCC(C)(C)[C@@H]1CC[C@]1(C)[C@@H]2C[C@@H](O)[C@]2(C)C3=C(CC[C@@H]12)[C@H](C)OC3=O | inactive
inactive | 7.47 | CC[C@@]1(C)CCC[C@]2(C)[C@H]3C[C@@H](O)[C@]4(C)C5=C(CC[C@H]4[C@]3(C)CC[C@@H]12)[C@@H](C)OC5=O | inactive
inactive |  | CC[C@@]1(C)CCC[C@]2(C)[C@H]3C[C@@H](O)[C@]4(C)C5=C(CC[C@H]4[C@]3(C)CC[C@@H]12)[C@H](C)OC5=O | inactive
